Data published in patent publication US7951798B2, “Polymorphs of olanzapine hydrochloride” (Egis Hyogyszergyar Nyrt., priority 2003, dated 2011).

Test: solubility in water (analytical studies)
Format: physicochemical
Conditions: compared with the new polymorphic hydrochloride salts

SMILES: Cc1cc2c(s1)Nc1ccccc1N=C2N1CCN(C)CC1 [olanzapine base, 2-methyl-4-(4-methylpiperazin-1-yl)-10H-thieno-[2,3-b][1,5]-benzodiazepine]
- solubility in water: significantly lower
